This assay has as its system Arg-e^K-DHFRha (mouse dihydrofolate reductase with e^K extension and ha epitope, from Ub-Arg-e^K-DHFRha). Nature of the assay: Degradation of 35S-labeled N-end rule substrate in ATP-supplemented reticulocyte extract (acid-soluble 35S, SDS-PAGE). The settings on record: for inhibition of Arg-e^K-DHFRha degradation: FIG. 3A. The assay is classed as biochemical.

Residues, ends and D or L forms follow the SMILES beside them.

With `CN(Cc1cnc2nc(N)nc(N)c2n1)c1ccc(C(=O)N[C@@H](CCC(=O)O)C(=O)O)cc1` [methotrexate], under “20 μM methotrexate, ATP-supplemented reticulocyte extract, 37° C.”, the “inhibition of Arg-e^K-DHFRha degradation” value is given as “nearly complete inhibition”. Besides, for the setting “20 μM methotrexate, ATP-supplemented reticulocyte extract, SDS-PAGE”, the “effect on multiubiquitination of Arg-e^K-DHFRha” value is “enhanced”.
For the compound `C[C@H](NC(=O)[C@@H](N)CCCNC(=N)N)C(=O)O` [Arg-Ala] (H-Arg-Ala-OH), the “inhibition of Arg-e^K-DHFRha degradation” value (1 mM Arg-Ala dipeptide, reticulocyte extract) was “almost completely inhibited”. Also, the “effect on ubiquitination of Arg-e^K-DHFRha” value (1 mM Arg-Ala dipeptide, reticulocyte extract, SDS-PAGE) is on record as “inhibited”.

The record behind these values is patent publication US5763212A, “Inhibiting degradation of a degron-bearing protein” (California Institute of Technology, priority 1995, dated 1998).
